Results reported in patent US20190367558A1, “ANTIBODY/DRUG CONJUGATES AND METHODS OF USE” (ESPERANCE PHARMACEUTICALS, INC., priority 2012, published 2019).

Tests used:
Assay type in all cases: cell-based, human
[1] = test system: Daudi (CD20 positive Non-Hodgkin's lymphoma cells); test: Membrane integrity, Cytotox Glo luminometric assay (Examples 12, 16, 19, 20, 22); settings: 4 h, CHO expressed IgG2 ADCs, Example 22
Description: (§1) Naked antibody anti-CD20-IgG1-Phor18 were chemically conjugated (MS4A and AT80), Mw app.158,000 g/mol at a concentrations of 0.34 mg/ml (MS4A-Phor18) and 0.76 mg/ml (AT-80-Phor18). Cell lines were obtained at the American Type Cell Collection (Mannassas, Va.). Human Non-Hodgkin's lymphoma cells Daudi (CD20 positive, passage number p2), Raji (CD20 positive p 2) and human leukemia cell line U937 (CD20 negative, p 10) were seeded at a density of 3,000 cells per well in opaque plates in heat inactivated full medium. After 24 hours cells were replenished with fresh media (75 μl) and incubated with 25 μl of a 4× serial dilution of MS4A1-Phor18 and AT80-Phor18 of 0.001, 0.01, 0.1, 1, 10, 100 and 500 nM (N=6). Cells incubated for 2-5 hours were assayed for membrane integrity using a luminometric assay kit (Promega, Madison, Wis., Cytotox Glo G9292 lot #301329). Cell viability was determined was determined after 24, and 48 hours using a luminescent assay kit (Promega, Madison, Wis., Cell Titer Glo, G 7572, lot 30068102).
(§2) The concentration of each naked antibody fragment and ADC was determined according to Bradford. Naked antibody scFv Mw 27,088 g/mol at a concentration of 0.3 mg/ml, minibody Mw 78,988 g/mol, 0.231 mg/ml; Phor 18 conjugated antibodies were scFv-Phor18 (Mw 29,349 g/mol, 0.9 mg/ml) and minibody-Phor18 (Mw 93,515, 0.48 mg/ml). Cell lines were obtained at the American Type Cell Collection (Mannassas, Va.). Human Non-Hodgkin's lymphoma cells Daudi (CD20 positive, passage number p8) and human leukemia cell line U937 (CD20 negative, p 16) were seeded at a density of 2,000 cells per well in opaque plates in heat inactivated full medium. After 24 hours cells were replenished with fresh media (75 μl) and incubated with 25 μl of a 4× serial dilution of scFv-Phor18 and minibody-Phor18 ADC and naked antibody fragment (scFv and minibody) prepared in cell culture media were added at concentrations of 0.0001, 0.001, 0.01, 0.1, 1, 10, 100, 200, and 500 nM (N=6). Cells incubated for 4 hours were assayed for membrane integrity using a luminometric assay kit (Promega, Madison, Wis., Cytotox Glo G9292 lot #301329). Cell viability was determined was determined after 24, 48 and 72 hours using a luminescent assay kit (Promega, Madison, Wis., Cell Titer Glo, G 7572, lot 30062102).
(§3) Controls for 100% cell viability (culture media) and 100% cell death (0.1% Triton X 100) incubated under the same conditions.
(§4) Data were processed and analyzed to obtain IC50 values using Graph Pad Prizm version 5.00 for Windows, GraphPad Software, San Diego Calif. USA, www-graphpad-com (Graph Pad Prizm, Inc). Statistical analysis for significance was determined by a two-tailed Student's T-test. Each test was conducted using 2 plates with 2-3 wells each to achieve an N of 4-6 data points per time point.
(§5) The concentration of each naked antibody fragment and ADC was determined spectrophotometrically (OD280). Naked antibody scFv-Fc Mw 52,562 g/mol at a concentration of 1.1 mg/ml, Phor 18 conjugated antibodies were Phor18-VL-scFvFc (Mw 54,685 g/mol, 1.0 mg/ml), scFv-Fc-CH3-Phor18 (Mw 54,685 g/mol, 0.8 mg/ml). Human Non-Hodgkin's lymphoma cells Daudi (CD20 positive, passage number p7) and human leukemia cell line U937 (CD20 negative, p 6) were seeded at a density of 2,000 cells per well in opaque plates in heat inactivated full medium using cell dissociation buffer. After 24 hours cells were replenished with fresh media (75 μl) and incubated and incubated with 25 μl of a 4× serial dilution of each ADC and naked antibody prepared in cell culture media were added at concentrations of 0.01, 0.1, 1, 10, 100, 200 and 500 nM for scFvFc, Phor18-VL-scFvFc and scFv-Fc-CH3-Phor18.
(§6) Cells incubated for 4 hours were assayed for membrane integrity using a luminometric assay kit (Promega, Madison, Wis., Cytotox Glo G9292 lot #26229601). Cell viability was determined was determined after 24 hours using a luminescent assay kit (Promega, Madison, Wis., Cell Titer Glo, G 7572, lot 30731602). […]

[2] = test system: Daudi (CD20 positive Non-Hodgkin's lymphoma cells); test: Cell viability, Cell Titer Glo luminescent assay (Examples 12, 16, 19, 20, 22); settings: CHO expressed IgG2 ADCs, Example 22
Description: as §1, §2, §3, §4, §5, §6

[3] = test system: U937 (CD20 negative leukemia cell line); test: Membrane integrity, Cytotox Glo luminometric assay (Examples 19, 20, 22); settings: CHO expressed IgG2 ADCs, Example 22
Description: The concentration of each naked antibody fragment and ADC was determined spectrophotometrically (OD280). Naked antibody scFv-Fc Mw 52,562 g/mol at a concentration of 1.1 mg/ml, Phor 18 conjugated antibodies were Phor18-VL-scFvFc (Mw 54,685 g/mol, 1.0 mg/ml), scFv-Fc-CH3-Phor18 (Mw 54,685 g/mol, 0.8 mg/ml). Human Non-Hodgkin's lymphoma cells Daudi (CD20 positive, passage number p7) and human leukemia cell line U937 (CD20 negative, p 6) were seeded at a density of 2,000 cells per well in opaque plates in heat inactivated full medium using cell dissociation buffer. […]
as §6
Cells incubated for 4 hours were assayed for membrane integrity using a luminometric assay kit (Promega, Madison, Wis., Cytotox Glo G9292 lot #26229601). Cell viability was determined was determined after 24, and 48 hours using a luminescent assay kit (Promega, Madison, Wis., Cell Titer Glo, G 7572, lot 31386501). […]

[4] = test system: U937 (CD20 negative leukemia cell line); test: Cell viability, Cell Titer Glo luminescent assay (Examples 12, 16, 19, 20, 22); settings: CHO expressed IgG2 ADCs, Example 22
Description: as §1, §2, §5
Cells incubated for 4 hours were assayed for membrane integrity using a luminometric assay kit (Promega, Madison, Wis., Cytotox Glo G9292 lot #26229601). Cell viability was determined was determined after 24 hours using a luminescent assay kit (Promega, Madison, Wis., Cell Titer Glo, G 7572, lot 30731602). Controls for 100% cell viability (culture media) and 100% cell death (0.1% Triton X 100) incubated under the same conditions.
Human Non-Hodgkin's lymphoma cells Daudi (CD20 positive, passage number p3) and human leukemia cell line U937 (CD20 negative, p 12) were seeded at a density of 2,000 cells per well in opaque plates in heat inactivated full medium using cell dissociation buffer. […]

IgG2: naked anti-CD20 IgG2 with Rituxan CDRs, CHO cells [reference compound]
Not toxic: IC50, Daudi 4 h (Membrane integrity) [1] | IC50, Daudi 24 h ([2]; 24 h) | IC50, Daudi 48 h ([2]; 48 h) | IC50, U937 4 h (Membrane integrity) [3] | IC50, U937 24 h ([4]; U937, 24 h) | IC50, U937 48 h ([4]; U937, 48 h)
